Experimental data published in ChEMBL document CHEMBL1201862, “PubChem BioAssay data set” (2004).
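Each compound was tested at five concentrations against cells in 96-well plates for 48 hours. GI50 marks 50% less growth.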 Active and inactive are the calls of the source. Rule as the data show it: active = GI50 up to about 1.1 µM and inactive = higher.

Tests used:
Test in all cases: inhibition of tumour cell growth, NCI panel, 48 h
SN12C = system: SN12C
MOLT-4 = system: MOLT-4
NCI-H460 = system: NCI-H460
Malme-3M = system: Malme-3M
KM-20L2 = system: KM-20L2
DMS-114 = system: DMS-114
KM12 = system: KM12
RPMI-8226 = system: RPMI-8226
786-0 = system: 786-0
RXF 393 = system: RXF 393
HT-29 = system: HT-29
EKVX = system: EKVX
LOX IMVI = system: LOX IMVI
COLO 205 = system: COLO 205
UACC-62 = system: UACC-62
SK-OV-3 = system: SK-OV-3
SNB-78 = system: SNB-78
NCI-H522 = system: NCI-H522
SF-268 = system: SF-268
OVCAR-5 = system: OVCAR-5
A498 = system: A498
HCT-15 = system: HCT-15
TK-10 = system: TK-10
UO-31 = system: UO-31
NCI-H226 = system: NCI-H226
SK-MEL-28 = system: SK-MEL-28
A549 = system: A549
M19-MEL = system: M19-MEL
OVCAR-3 = system: OVCAR-3
SNB-75 = system: SNB-75
K562 = system: K562
IGROV-1 = system: IGROV-1
SF-295 = system: SF-295
DMS-273 = system: DMS-273
SNB-19 = system: SNB-19
SK-MEL-5 = system: SK-MEL-5
HL-60 = system: HL-60
U-251 = system: U-251
M14 = system: M14
NCI-H23 = system: NCI-H23
SW-620 = system: SW-620
CAKI-1 = system: CAKI-1
CCRF-CEM = system: CCRF-CEM
OVCAR-4 = system: OVCAR-4
HCC 2998 = system: HCC 2998
SF-539 = system: SF-539
OVCAR-8 = system: OVCAR-8
SK-MEL-2 = system: SK-MEL-2
ACHN = system: ACHN
UACC-257 = system: UACC-257
LXFL 529 = system: LXFL 529
DLD-1 = system: DLD-1
SR = system: SR
HOP-62 = system: HOP-62
HCT-116 = system: HCT-116

Structure (SMILES): O=[N+]([O-])c1cc([N+](=O)[O-])c(/C=C/c2ccc(Cl)c(Cl)c2)cc1/C=C/c1ccc(Cl)c(Cl)c1
- GI50 (SN12C): 21.2 µM (inactive)
- GI50 (MOLT-4): 23.2 µM (inactive)
- GI50 (NCI-H460): 30.4 µM (inactive)
- GI50 (Malme-3M): 25.2 µM (inactive)
- GI50 (KM-20L2): 31 µM (inactive)
- GI50 (DMS-114): 24.5 µM (inactive)
- GI50 (KM12): 18.5 µM (inactive)
- GI50 (RPMI-8226): 19.3 µM (inactive)
- GI50 (786-0): 24.7 µM (inactive)
- GI50 (RXF 393): 20.8 µM (inactive)
- GI50 (HT-29): 28.1 µM (inactive)
- GI50 (EKVX): 44.1 µM (inactive)
- GI50 (LOX IMVI): 23.7 µM (inactive)
- GI50 (COLO 205): 18.7 µM (inactive)
- GI50 (UACC-62): 27.5 µM (inactive)
- GI50 (SK-OV-3): 64.6 µM (inactive)
- GI50 (SNB-78): 47.4 µM (inactive)
- GI50 (NCI-H522): 21.5 µM (inactive)
- GI50 (SF-268): 25.8 µM (inactive)
- GI50 (OVCAR-5): 36.1 µM (inactive)
- GI50 (A498): > 100 µM (inactive)
- GI50 (HCT-15): 21.2 µM
- GI50 (TK-10): 52.5 µM (inactive)
- GI50 (UO-31): 17.5 µM (inactive)
- GI50 (NCI-H226): 24.6 µM (inactive)
- GI50 (SK-MEL-28): 26.5 µM (inactive)
- GI50 (A549): 41.3 µM (inactive)
- GI50 (M19-MEL): 21.4 µM (inactive)
- GI50 (OVCAR-3): 17.5 µM (inactive)
- GI50 (SNB-75): 29 µM (inactive)
- GI50 (K562): 27.7 µM (inactive)
- GI50 (IGROV-1): 22.9 µM (inactive)
- GI50 (SF-295): 25.6 µM (inactive)
- GI50 (DMS-273): 28.4 µM (inactive)
- GI50 (SNB-19): 25.6 µM (inactive)
- GI50 (SK-MEL-5): 18.9 µM (inactive)
- GI50 (HL-60): 22.2 µM (inactive)
- GI50 (U-251): 33 µM (inactive)
- GI50 (M14): 23.1 µM (inactive)
- GI50 (NCI-H23): 20.4 µM (inactive)
- GI50 (SW-620): 28.2 µM (inactive)
- GI50 (CAKI-1): 31.4 µM (inactive)
- GI50 (CCRF-CEM): 21.7 µM (inactive)
- GI50 (OVCAR-4): 38.7 µM (inactive)
- GI50 (HCC 2998): 30.3 µM (inactive)
- GI50 (SF-539): 21.9 µM (inactive)
- GI50 (OVCAR-8): 29.2 µM (inactive)
- GI50 (SK-MEL-2): 24.4 µM (inactive)
- GI50 (ACHN): 22.5 µM (inactive)
- GI50 (UACC-257): 23.4 µM (inactive)
- GI50 (LXFL 529): 23.6 µM (inactive)

Structure (SMILES): O=C(O)CCSC(=O)Nc1cccc([N+](=O)[O-])c1
- GI50 (SN12C): 94.6 µM (inactive)
- GI50 (MOLT-4): 43.7 µM (inactive)
- GI50 (NCI-H460): > 100 µM (inactive)
- GI50 (DLD-1): 72.1 µM (inactive)
- GI50 (SR): > 100 µM (inactive)
- GI50 (DMS-114): > 100 µM (inactive)
- GI50 (KM12): > 100 µM (inactive)
- GI50 (RPMI-8226): > 100 µM (inactive)
- GI50 (786-0): > 100 µM (inactive)
- GI50 (RXF 393): > 100 µM (inactive)
- GI50 (HT-29): 87.1 µM (inactive)
- GI50 (EKVX): > 100 µM (inactive)
- GI50 (LOX IMVI): 66.7 µM (inactive)
- GI50 (COLO 205): > 100 µM (inactive)
- GI50 (SNB-78): > 100 µM (inactive)
- GI50 (SF-268): 17 µM (inactive)
- GI50 (A498): > 100 µM (inactive)
- GI50 (HCT-15): 44.2 µM
- GI50 (TK-10): > 100 µM (inactive)
- GI50 (UO-31): 63 µM (inactive)
- GI50 (SK-MEL-28): > 100 µM (inactive)
- GI50 (A549): > 100 µM (inactive)
- GI50 (OVCAR-3): > 100 µM (inactive)
- GI50 (SNB-75): > 100 µM (inactive)
- GI50 (K562): > 100 µM (inactive)
- GI50 (IGROV-1): 72.6 µM (inactive)
- GI50 (SF-295): > 100 µM (inactive)
- GI50 (DMS-273): > 100 µM (inactive)
- GI50 (SNB-19): > 100 µM (inactive)
- GI50 (HL-60): > 100 µM (inactive)
- GI50 (U-251): > 100 µM (inactive)
- GI50 (M14): > 100 µM (inactive)
- GI50 (NCI-H23): > 100 µM (inactive)
- GI50 (SW-620): 92.9 µM (inactive)
- GI50 (CAKI-1): 71.1 µM (inactive)
- GI50 (HOP-62): > 100 µM (inactive)
- GI50 (CCRF-CEM): > 100 µM (inactive)
- GI50 (OVCAR-4): 60.8 µM (inactive)
- GI50 (HCC 2998): > 100 µM (inactive)
- GI50 (SF-539): > 100 µM (inactive)
- GI50 (OVCAR-8): > 100 µM (inactive)
- GI50 (SK-MEL-2): > 100 µM (inactive)
- GI50 (ACHN): 52.7 µM (inactive)
- GI50 (UACC-257): > 100 µM (inactive)
- GI50 (LXFL 529): > 100 µM (inactive)
- GI50 (HCT-116): > 100 µM (inactive)
